Tests used:
[1] = target: T1, TthMTA1-TthMTA9-Tthp2 ternary complex (ITC) (Tetrahymena thermophila, UniProt Q22GC0); assay: isothermal titration calorimetry; conditions: 25 °C, pH 7.5, 300 mM NaCl, no DNA
T1 construct: gene TTHERM_00704040

[2] = target: T2, TthMTA1 (residues 126-372)-Tthp2 crystal complex (Tetrahymena thermophila, UniProt Q22GC0); assay: X-ray crystal structure, soaking; format: binding; conditions: site in MTA1 MTase domain
T2 construct: gene TTHERM_00704040; N-terminally truncated MTA1 with p2
T2 sequence (Q22GC0 182-428): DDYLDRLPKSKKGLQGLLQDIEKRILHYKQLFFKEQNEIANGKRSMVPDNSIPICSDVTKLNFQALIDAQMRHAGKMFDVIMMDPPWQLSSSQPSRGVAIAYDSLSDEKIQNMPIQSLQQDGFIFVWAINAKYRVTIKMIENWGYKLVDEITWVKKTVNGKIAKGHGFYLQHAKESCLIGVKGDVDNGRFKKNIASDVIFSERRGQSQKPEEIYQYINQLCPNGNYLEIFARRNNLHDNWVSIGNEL

[3] = target: T3, TthMTA1c (MTA1-MTA9-p1-p2 quaternary complex) (Tetrahymena thermophila, UniProt Q22GC0); assay: isothermal titration calorimetry; conditions: 25 °C, pH 7.5, 300 mM NaCl, no DNA
T3 construct: gene TTHERM_00704040
T3 sequence (Q22GC0 entry or part of it, one chain of several): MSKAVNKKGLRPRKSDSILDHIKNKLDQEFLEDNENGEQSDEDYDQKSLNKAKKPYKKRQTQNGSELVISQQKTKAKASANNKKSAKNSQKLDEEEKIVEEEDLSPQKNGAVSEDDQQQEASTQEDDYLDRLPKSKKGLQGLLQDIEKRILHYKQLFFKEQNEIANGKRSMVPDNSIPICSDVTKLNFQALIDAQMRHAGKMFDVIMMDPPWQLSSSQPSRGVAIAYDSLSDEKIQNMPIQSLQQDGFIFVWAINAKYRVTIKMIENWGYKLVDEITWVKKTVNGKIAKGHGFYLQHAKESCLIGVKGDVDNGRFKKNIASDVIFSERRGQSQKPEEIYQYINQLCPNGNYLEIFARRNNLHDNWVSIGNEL

[4] = target: T4, TthMTA1-Tthp1-Tthp2 ternary complex (ITC) (Tetrahymena thermophila, UniProt Q22GC0); assay: isothermal titration calorimetry; conditions: 25 °C, pH 7.5, 300 mM NaCl, no DNA
T4 construct: gene TTHERM_00704040
T4 sequence (Q22GC0 entry or part of it, one chain of several): as above

TthMTA1-Ptep2 (ITC) = target: T5, TthMTA1-Ptep2 (ITC) (Tetrahymena thermophila, UniProt Q22GC0); assay: isothermal titration calorimetry; conditions: 25 °C, pH 7.5, 300 mM NaCl, no DNA
T5 construct: gene TTHERM_00704040
T5 sequence (Q22GC0 57-428): as the sequence (Q22GC0 entry or part of it, one chain of several) above

[5] = target: T6, TthMTA1-Tthp2 binary complex (ITC) (Tetrahymena thermophila, UniProt Q22GC0); assay: isothermal titration calorimetry; conditions: 25 °C, pH 7.5, 300 mM NaCl, no DNA
T6 construct: gene TTHERM_00704040
T6 sequence (Q22GC0 entry or part of it, one chain of several): as above

[6] = target: T7, TthMTA1 (residues 126–372)-Tthp1-Tthp2 crystal complex (Tetrahymena thermophila, UniProt Q22GC0); assay: X-ray crystal structure, soaking; format: binding; conditions: site in MTA1 MTase domain
T7 construct: gene TTHERM_00704040; N-terminally truncated MTA1 with p1 and p2; p1 degraded in the crystal, only its HTH domain seen
T7 sequence (Q22GC0 182-428): T2 sequence (Q22GC0 182-428)

[7] = target: Tetrahymena thermophila MTA1 (TthMTA1), untagged (Tetrahymena thermophila); assay: SEC; Superdex 200 Increase 10/300; purified proteins mixed at equimolar ratio (1:1, 1:1:1 or 1:1:1:1), 60 min on ice; 20 mM Tris pH 7.5, 300 mM NaCl, 2 mM DTT; peak fractions on SDS-PAGE
[8] = target: T8, GST-MTA1 (residues 171-372); assay: GST pull-down; conditions: chain shown with the change;; parent: 100
T8 chain: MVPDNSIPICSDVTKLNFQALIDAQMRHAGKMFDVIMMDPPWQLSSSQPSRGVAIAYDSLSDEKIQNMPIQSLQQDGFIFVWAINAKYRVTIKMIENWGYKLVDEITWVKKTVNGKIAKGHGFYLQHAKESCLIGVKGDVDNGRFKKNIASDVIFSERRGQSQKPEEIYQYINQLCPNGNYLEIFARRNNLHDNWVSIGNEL

His6GST-Tthp2 = target: T9, His6GST-Tthp2; assay: GST pull-down; conditions: chain shown with the change;; parent: 100
T9 chain: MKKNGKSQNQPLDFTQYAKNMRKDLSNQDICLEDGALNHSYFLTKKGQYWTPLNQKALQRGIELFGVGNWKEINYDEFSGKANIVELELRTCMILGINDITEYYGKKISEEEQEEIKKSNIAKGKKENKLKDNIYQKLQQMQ

T1 sequence (Q22GC0 entry or part of it, one chain of several): as the sequence (Q22GC0 entry or part of it, one chain of several) above

For `C[S+](CC[C@H](N)C(=O)O)C[C@H]1O[C@@H](n2cnc3c(N)ncnc32)[C@H](O)[C@@H]1O` (stereo partly drawn) [SAM], the Kd [1] was 3.64 ± 0.56 µM, the “X-ray crystal structure, soaking” value ([2]; 1 mM SAM soak) was “further confirmed by our SAM- and SAH-bound MTA1-p2 structures” and the Kd [3] was 2.4 ± 0.26 µM. For the same molecule, the Kd [4] was 14.8 ± 2.71 µM, the Kd (TthMTA1-Ptep2 (ITC)) was 67.8 ± 5.45 µM and the Kd [5] was 44.6 ± 3.4 µM. The “X-ray crystal structure, soaking” value ([6]; 3.4 Å, 1 mM SAM soak) was “SAM donor-bound MTA1-p1-p2 complex”.

With “Tetrahymena thermophila MTA9 (TthMTA9), untagged (natural protein)” the stoichiometry N [7] was 1.

In the case of `Nc1ncnc2c1ncn2[C@@H]1O[C@H](CSCC[C@H](N)C(=O)O)[C@@H](O)[C@H]1O` [SAH], the “X-ray crystal structure, soaking” value ([2]; 1 mM SAH soak) is reported as “further confirmed by our SAM- and SAH-bound MTA1-p2 structures” and the “X-ray crystal structure, soaking” value ([6]; 3.0 Å, 1 mM SAH soak) is reported as “the SAH product-bound MTA1-p1-p2 complex by soaking approach”.

B1: Paramecium tetraurelia MTA9 (PteMTA9), untagged K218A (protein)
chain: MGKNQRESLRMRLRYNEPGSENKRINYFKLNQGYDITEDDSEYMDEQDSYKAFKKIRKYKTKSKEDKVTCDNLEVLLQWKGSINCQSYETDQKKIVVLKKILGTDLSQYAKGVQGIFIDNLFKKDLKNLDISKKLISNGILFIWSDKSLINEILETMENKGFTYIENLVVVQLSLEQALEELNKHMKIEQTEDAVLDNLDFLQQKVQVKDLILHRPSAVLNQSKQVLIMFRKFDEQKSQLELRHQRTPDVLFDIVNNGKSCLKTKEYIYQTIETLLPKSQLMEIFAQKDQPRKGWISVCENK
For B1, the percent of parent [8] was 99%.

B2: Tetrahymena thermophila MTA1 (TthMTA1), untagged R358A (protein)
chain: MSKAVNKKGLRPRKSDSILDHIKNKLDQEFLEDNENGEQSDEDYDQKSLNKAKKPYKKRQTQNGSELVISQQKTKAKASANNKKSAKNSQKLDEEEKIVEEEDLSPQKNGAVSEDDQQQEASTQEDDYLDRLPKSKKGLQGLLQDIEKRILHYKQLFFKEQNEIANGKRSMVPDNSIPICSDVTKLNFQALIDAQMRHAGKMFDVIMMDPPWQLSSSQPSRGVAIAYDSLSDEKIQNMPIQSLQQDGFIFVWAINAKYRVTIKMIENWGYKLVDEITWVKKTVNGKIAKGHGFYLQHAKESCLIGVKGDVDNGRFKKNIASDVIFSERRGQSQKPEEIYQYINQLCPNGNYLEIFARANNLHDNWVSIGNEL
Molecule B2 has a percent of parent (His6GST-Tthp2) of 4%.

From PMC9174199, “Structural basis for MTA1c-mediated DNA N6-adenine methylation” (Nature Communications, 2022)
